Among the test systems are SK-MEL-2 melanoma; SR leukemia; SK-MEL-28 melanoma; HOP-92 NSCLC; SW-620 colon; OVCAR-4 ovarian; LOX IMVI melanoma; SF-268 CNS; MCF7 breast.
Assay in all cases: growth of human tumour cells (NCI), 48 h

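Cells were grown in 96-well plates and exposed to each compound for 48 hours at five concentrations; endpoints were interpolated linearly between bracketing concentrations, or set to the highest concentration if not reached. Here, GI50 denotes the concentration required for 50% inhibition of growth. TGI: total growth inhibition.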

Consider `CC1(C)CCC[C@]2(C)[C@H]3[C@H](C#N)c4cc(O)c(O)cc4O[C@@]3(C)CC[C@@H]12`, for which the TGI in the assay with SK-MEL-2 melanoma, with SR leukemia, in the assay on SK-MEL-28 melanoma, in the assay with HOP-92 NSCLC, in the assay on SW-620 colon and in the assay with OVCAR-4 ovarian was over 10 µM in each case. Also, the TGI in the assay with LOX IMVI melanoma, in the assay on SF-268 CNS and in the assay on MCF7 breast was over 10 µM in each case.

For `COc1ccccc1NC(=O)CC(=O)N/N=C/c1ccc(N(CCC#N)S(=O)(=O)c2ccccc2)cc1`, the TGI in the assay on SK-MEL-2 melanoma, with SR leukemia, in the assay with SK-MEL-28 melanoma, in the assay on HOP-92 NSCLC, in the assay on SW-620 colon and in the assay on OVCAR-4 ovarian was over 100 µM each time. For the same compound, the TGI in the assay with LOX IMVI melanoma and with SF-268 CNS was over 100 µM in each case.

For the compound `CCCSS[C@H]1NC(=O)[C@H]1NC(=O)COc1ccccc1`, the TGI was determined as 33.5 µM in the assay on SK-MEL-2 melanoma; 19.6 µM in the assay on SR leukemia; 30.3 µM with SK-MEL-28 melanoma; 24.4 µM with HOP-92 NSCLC; 18.2 µM with SW-620 colon; 31.9 µM in the assay with OVCAR-4 ovarian. Further, the figures for the TGI in the assay on LOX IMVI melanoma and in the assay with SF-268 CNS were 30.2 µM and 40.5 µM, respectively.

As for `COc1cccc(NC(=O)/C(Cc2nc3ccccc3nc2C)=N/NC(=O)C[n+]2ccccc2)c1`, the TGI is over 100 µM in the assay with SK-MEL-2 melanoma; over 100 µM in the assay with SR leukemia; over 100 µM in the assay with SK-MEL-28 melanoma; 25.6 µM in the assay on SW-620 colon; over 100 µM with OVCAR-4 ovarian; over 100 µM with LOX IMVI melanoma. Also, the TGI with SF-268 CNS was over 100 µM.

For `Cc1cc(C)cc(NC(N)=S)c1`, the TGI in the assay on SK-MEL-2 melanoma is over 100 µM; in the assay on SR leukemia, over 100 µM; in the assay on SK-MEL-28 melanoma, over 100 µM; in the assay on HOP-92 NSCLC, over 100 µM; in the assay with SW-620 colon, 18 µM; with OVCAR-4 ovarian, over 100 µM. The TGI in the assay with LOX IMVI melanoma was 89.5 µM; with SF-268 CNS, over 100 µM.

Consider `CCN(CC)C(=O)C(C)n1cc(C)c(=O)[nH]c1=O` (configuration not stated), for which the TGI with SK-MEL-2 melanoma, with SK-MEL-28 melanoma, with SW-620 colon, in the assay on OVCAR-4 ovarian, in the assay with LOX IMVI melanoma and with SF-268 CNS was over 100 µM in each case.

In the case of `COc1ccc(C2ON(c3cccc(C)n3)CC=C2C)cc1` (configuration not stated), the TGI is 69.4 µM with SK-MEL-2 melanoma; 99.2 µM in the assay with SR leukemia; 71.3 µM with SK-MEL-28 melanoma; over 100 µM in the assay with SW-620 colon; over 100 µM in the assay with OVCAR-4 ovarian; over 100 µM in the assay on LOX IMVI melanoma. For the same compound, the TGI with SF-268 CNS is over 100 µM.

On to `COC(C)(C)C/C=C/C(C)=C/C=C/C(C)=C\C=C\C(C)=C\C=C\C=C(C)\C=C\C=C(C)\C=C\C=C(C)\C=C\CC(C)(C)OC`, for which the GI50 in the assay with SK-MEL-2 melanoma, with SK-MEL-28 melanoma, in the assay with HOP-92 NSCLC, in the assay with SW-620 colon, with OVCAR-4 ovarian and with LOX IMVI melanoma was over 150 µg/mL throughout. Besides, the GI50 in the assay with SF-268 CNS is over 150 µg/mL. The TGI in the assay on SK-MEL-2 melanoma, with SK-MEL-28 melanoma, with HOP-92 NSCLC, in the assay with SW-620 colon, with OVCAR-4 ovarian and with LOX IMVI melanoma was over 150 µg/mL each time. In the assay on SF-268 CNS, this compound returned a TGI of over 150 µg/mL.

Take `N#CC1CC2(CCN1C(=O)c1ccccc1)OCCO2` (configuration not stated): the TGI with SK-MEL-2 melanoma, with SR leukemia, in the assay on HOP-92 NSCLC, in the assay with SW-620 colon, with OVCAR-4 ovarian and in the assay with SF-268 CNS was over 100 µM throughout.

On to `O=C(NC12CC3CC(CC(C3)C1)C2)C(=O)c1c[nH]c2ccccc12`, for which the TGI in the assay on SK-MEL-2 melanoma was 32.3 µM; in the assay on SR leukemia, 48.7 µM; in the assay with SK-MEL-28 melanoma it was 30.3 µM; in the assay with HOP-92 NSCLC, 28.8 µM; in the assay on OVCAR-4 ovarian, 31.4 µM; in the assay on LOX IMVI melanoma, 25.8 µM. The same compound came in with a TGI in the assay on SF-268 CNS of 30.4 µM.

Turning to `CC(=O)C1=C(O)CC2CC3c4[nH]c5ccccc5c4CCN3CC2C1` (configuration not stated), the TGI in the assay on SK-MEL-2 melanoma is over 100 µM; in the assay on SR leukemia, 58.5 µM; with SK-MEL-28 melanoma it was over 100 µM; in the assay with SW-620 colon it was over 100 µM; in the assay with OVCAR-4 ovarian, over 100 µM; in the assay on LOX IMVI melanoma, over 100 µM. Moreover, the TGI in the assay on SF-268 CNS is over 100 µM.

`N#CC1(C#N)C(C#N)(C#N)C12CCCCCC2`: the TGI in the assay on SK-MEL-2 melanoma amounted to 18.4 µM; in the assay on SR leukemia, 75.2 µM; in the assay on SK-MEL-28 melanoma, 21.4 µM; in the assay on HOP-92 NSCLC, 29.4 µM; with SW-620 colon, 5.29 µM; in the assay with OVCAR-4 ovarian, 30 µM. The TGI is 32.3 µM in the assay on LOX IMVI melanoma and 48.9 µM in the assay on SF-268 CNS.

Turning to `O=C(c1ccccc1)c1cn(/N=C\c2ccccc2)c(=O)nc1-c1ccccc1`, the TGI in the assay on SK-MEL-2 melanoma, in the assay on SK-MEL-28 melanoma, in the assay with HOP-92 NSCLC, in the assay on SW-620 colon, with OVCAR-4 ovarian and in the assay with LOX IMVI melanoma was over 100 µM in each case. In the assay on SF-268 CNS, this compound displayed a TGI of over 100 µM.

`Clc1ccc(C(n2cc(Br)cn2)n2cc(Br)cn2)cc1`: the TGI in the assay with SK-MEL-2 melanoma was 33.2 µM; with SK-MEL-28 melanoma, 32.6 µM; with HOP-92 NSCLC it was 30.6 µM; with SW-620 colon, 34.6 µM; in the assay with OVCAR-4 ovarian, 26.4 µM; in the assay with SF-268 CNS, 33.4 µM.

Consider `CCOc1ccc2nc(NC(=O)C(=O)C(c3cnc4ccccc4n3)[N+](=O)[O-])sc2c1` (configuration not stated), for which the TGI with SK-MEL-2 melanoma, in the assay with HOP-92 NSCLC, in the assay with OVCAR-4 ovarian, with LOX IMVI melanoma, in the assay with SF-268 CNS and with MCF7 breast was over 100 µM in each case.

`CC(C)(c1ccccc1)c1ccc(OC#N)cc1`: the TGI in the assay on SK-MEL-2 melanoma was over 100 µM; with SR leukemia it was 43.1 µM; in the assay with SK-MEL-28 melanoma, over 100 µM; with HOP-92 NSCLC it was over 100 µM; in the assay on SW-620 colon it was over 100 µM; in the assay on OVCAR-4 ovarian it was over 100 µM. For the same compound, the TGI with LOX IMVI melanoma is over 58.9 µM; in the assay with SF-268 CNS, over 100 µM.

The values are drawn from PubChem BioAssay (NCI).
